The results in this text go back to patent US20230141887A1, “CRYSTAL FORM OF DIAZASPIROPYRAN COMPOUND” (MEDSHINE DISCOVERY INC., priority 2020, published 2023).

The target in the test is T1, FLT3 (Homo sapiens, UniProt P36888).
T1 construct: purchased Promega
Kind of test: Assay of FLT3 inhibitory activity in vitro (Promega FLT3 Kinase Enzyme System, ADP-Glo). It counts as biochemical. The conditions noted are these: 50 μmol/L ATP, 30° C., 120 minutes. The procedure: The assay was carried out in duplicate. […] After the reaction was completed, 5 μL of ADP-Glo reagent was added to each well. The system was further reacted at 30° C. for 40 minutes. After the reaction was completed, 10 μL of kinase detection reagent was added to each well and reacted at 30° C. for 30 minutes. The chemiluminescence was then read by the PerkinElmer Envision multi-label analyzer with an integration time of 0.5 seconds.
The original data was converted into an inhibition rate, and the IC50 value can be obtained by four-parameter curve fitting.
Background: In ADP-Glo the light output rises with the ADP produced.

T1 sequence (P36888 27-993): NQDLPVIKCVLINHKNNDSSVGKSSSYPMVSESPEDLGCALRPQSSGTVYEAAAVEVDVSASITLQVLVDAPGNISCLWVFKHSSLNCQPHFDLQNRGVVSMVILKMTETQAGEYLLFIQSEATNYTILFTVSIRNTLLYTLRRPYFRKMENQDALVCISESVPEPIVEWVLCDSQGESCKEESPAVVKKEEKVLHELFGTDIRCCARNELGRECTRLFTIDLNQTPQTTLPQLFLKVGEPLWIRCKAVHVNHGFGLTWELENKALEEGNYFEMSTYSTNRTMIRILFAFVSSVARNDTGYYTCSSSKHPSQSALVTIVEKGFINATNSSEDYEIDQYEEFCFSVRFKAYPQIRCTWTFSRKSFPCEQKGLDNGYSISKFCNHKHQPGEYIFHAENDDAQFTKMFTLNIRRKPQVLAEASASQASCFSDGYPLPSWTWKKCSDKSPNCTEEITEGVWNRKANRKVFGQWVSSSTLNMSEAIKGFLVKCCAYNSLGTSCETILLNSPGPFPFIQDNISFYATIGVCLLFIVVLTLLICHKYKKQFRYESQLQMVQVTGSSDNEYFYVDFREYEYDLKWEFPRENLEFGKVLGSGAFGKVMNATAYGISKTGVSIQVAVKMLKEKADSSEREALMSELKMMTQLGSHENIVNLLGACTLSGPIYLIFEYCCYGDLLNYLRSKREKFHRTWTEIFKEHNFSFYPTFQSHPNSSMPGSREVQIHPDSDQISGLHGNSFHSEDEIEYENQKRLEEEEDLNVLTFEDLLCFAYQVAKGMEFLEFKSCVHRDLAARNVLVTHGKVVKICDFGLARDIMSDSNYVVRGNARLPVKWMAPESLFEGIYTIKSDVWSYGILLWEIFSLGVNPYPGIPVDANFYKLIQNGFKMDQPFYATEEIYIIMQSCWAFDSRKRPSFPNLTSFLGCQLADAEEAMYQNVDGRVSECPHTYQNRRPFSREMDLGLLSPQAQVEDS

What is called IC50 is the concentration that gives 50% inhibition. A lower IC50 goes with higher potency. As to `CCc1nc(C(N)=O)c(Nc2ccc(N3CCC4(CCN(C)CC4)CC3)c(C)c2)nc1NC1CCOCC1.O=C(O)C(F)(F)F`, the 50% inhibitory concentration (IC50) is 0.42 nM.
